Reference: PMC8294059, “Identification and Immune Assessment of T Cell Epitopes in Five Plasmodium falciparum Blood Stage Antigens to Facilitate Vaccine Candidate Selection and Optimization” (Frontiers in Immunology, 2021)
Where a SMILES comes first, the peptide text is derived from it.

These molecules were tested against HLA-A*0201 (Homo sapiens, UniProt P04439, D140Y/D185E/D98H/E176V/E277Q/G131W/G231S/I119V/I121R/I166T/I218V/L300P/L318F/N151K/N90K/P208A/P217A/Q86G/Q94H/R138H/R169H/T345S) (assay: In vitro class I HLA binding assay (fluorescence polarization competition)). Settings: allele A*0201; cell-free competition, fluorescence polarization at 72 hours; Non-binder = no dose-dependent inhibition; read-out: IC50.
Procedure: A cell-free class I HLA binding assay that allows for in vitro quantification of peptide-HLA binding affinity in a competition format was used. In this assay, a fluorescently labeled, high binding, control peptide is loaded onto 384-well ½-area plates along with unlabeled experimental peptides. To remove endogenous peptides and render the HLA A and B molecules receptive to binding, HLA is heated at 53°C for 15 minutes and immediately added to the assay. The mixture is then allowed to stand for three days. Once the mixture has reached steady equilibrium (at 72 hours), displacement of the high binding control peptide is measured through fluorescence polarization. Binding of experimental peptides is expressed as the percent inhibition of the labeled control peptide (experimental fluorescence / control fluorescence, multiplied by 100). The percent inhibition values for each experimental peptide (across a range of molar concentrations) are used to calculate the concentration which inhibits 50% of the labeled control peptide’s specific binding. This value is referred to as the peptide’s IC50.

Structure (SMILES) | IC50
CC[C@H](C)[C@H](NC(=O)[C@H](CC(C)C)NC(=O)[C@@H](N)CO)C(=O)N[C@@H](CCCCN)C(=O)N[C@@H](CCC(N)=O)C(=O)N[C@@H](CC(N)=O)C(=O)N[C@@H](CCCCN)C(=O)N[C@@H](Cc1ccc(O)cc1)C(=O)N[C@H](C(=O)O)C(C)C [EBA175_0116] (H-SLIKQNKYV-OH) | 29900 nM
CC[C@H](C)[C@H](NC(=O)[C@@H](NC(=O)[C@H](CC(N)=O)NC(=O)[C@H](CC(=O)O)NC(=O)[C@H](CC(N)=O)NC(=O)CNC(=O)[C@H](CC(N)=O)NC(=O)[C@H](CC(C)C)NC(=O)[C@@H](NC(=O)[C@@H](N)CO)C(C)C)[C@@H](C)O)C(=O)O [EBA175_0436] (H-SVLNGNDNTI-OH) | 640000 nM
CC[C@H](C)[C@H](NC(=O)[C@@H](NC(=O)[C@H](CC(N)=O)NC(=O)[C@H](CC(=O)O)NC(=O)[C@H](CC(N)=O)NC(=O)CNC(=O)[C@H](CC(N)=O)NC(=O)[C@H](CC(C)C)NC(=O)[C@@H](N)C(C)C)[C@@H](C)O)C(=O)O [EBA175_0437] (H-VLNGNDNTI-OH) | 7310 nM
CC[C@H](C)[C@H](NC(=O)[C@H](CO)NC(=O)[C@H](CCCCN)NC(=O)[C@H](Cc1ccccc1)NC(=O)[C@H](CCC(=O)O)NC(=O)[C@H](CO)NC(=O)[C@H](Cc1ccc(O)cc1)NC(=O)[C@H](CCSC)NC(=O)[C@@H](N)CCCCN)C(=O)O [EBA175_0697] (H-KMYSEFKSI-OH) | 1020 nM
CC(C)C[C@H](NC(=O)[C@H](CC(N)=O)NC(=O)[C@H](CC(=O)O)NC(=O)[C@@H](NC(=O)[C@@H](NC(=O)[C@H](CCC(=O)O)NC(=O)[C@H](Cc1ccccc1)NC(=O)[C@H](CC(C)C)NC(=O)[C@@H](N)Cc1ccccc1)C(C)C)[C@@H](C)O)C(=O)O [EBA175_1461] (H-FLFEVTDNL-OH) | 269 nM

Same assay, conditions: allele A*0201; fluorescence polarization competition; read-out: IC50 (nM), in vitro HLA binding affinity

Structure (SMILES) | IC50
CC[C@H](C)[C@H](NC(=O)[C@H](CCSC)NC(=O)[C@@H](N)CO)C(=O)N[C@@H](CCCCN)C(=O)N[C@@H](CO)C(=O)N[C@@H](C)C(=O)N[C@@H](Cc1ccccc1)C(=O)N[C@@H](CC(C)C)C(=O)N1CCC[C@H]1C(=O)N[C@H](C(=O)O)[C@@H](C)O [AMA1_373] (H-SMIKSAFLPT-OH) | 12500 nM
CC(C)C[C@H](NC(=O)[C@@H](N)Cc1ccccc1)C(=O)N1CCC[C@H]1C(=O)N[C@H](C(=O)NCC(=O)N[C@@H](C)C(=O)N[C@@H](Cc1ccccc1)C(=O)N[C@@H](CCCCN)C(=O)N[C@@H](C)C(=O)O)[C@@H](C)O [AMA1_379] (H-FLPTGAFKA-OH) | 1390 nM
CC[C@H](C)[C@H](NC(=O)[C@H](Cc1ccc(O)cc1)NC(=O)[C@H](CO)NC(=O)[C@H](CO)NC(=O)[C@H](CC(N)=O)NC(=O)[C@H](CC(N)=O)NC(=O)[C@@H](NC(=O)[C@H](CC(C)C)NC(=O)[C@@H](N)CS)[C@@H](C)CC)C(=O)O [AMA1_418] (H-CLINNSSYI-OH) | 3820 nM
CC[C@H](C)[C@H](NC(=O)[C@@H](N)Cc1ccccc1)C(=O)N[C@@H](CO)C(=O)N[C@@H](CC(=O)O)C(=O)N[C@@H](CC(=O)O)C(=O)N[C@@H](CCCCN)C(=O)N[C@@H](CC(=O)O)C(=O)N[C@@H](CO)C(=O)N[C@@H](CC(C)C)C(=O)O [AMA1_480] (H-FISDDKDSL-OH) | 336000 nM
CC[C@H](C)[C@H](NC(=O)[C@@H](NC(=O)[C@H](C)NC(=O)[C@H](CC(C)C)NC(=O)[C@@H](NC(=O)[C@H](C)N)C(C)C)[C@@H](C)O)C(=O)N[C@@H](CC(C)C)C(=O)N[C@@H](CCSC)C(=O)N[C@H](C(=O)O)C(C)C [AMA1_556] (H-AVLATILMV-OH) | 23600 nM
CC(C)C[C@H](NC(=O)[C@H](Cc1ccccc1)NC(=O)[C@H](Cc1ccccc1)NC(=O)[C@H](Cc1ccc(O)cc1)NC(=O)[C@H](CCC(N)=O)NC(=O)[C@@H](NC(=O)CNC(=O)[C@H](CC(C)C)NC(=O)[C@@H](N)CCCCN)C(C)C)C(=O)O [CYRPA_220] (H-KLGVQYFFL-OH) | 805 nM
CC[C@H](C)[C@H](NC(=O)[C@H](CC(N)=O)NC(=O)[C@H](CC(=O)O)NC(=O)CNC(=O)[C@@H](NC(=O)[C@@H](N)Cc1ccc(O)cc1)C(C)C)C(=O)N[C@@H](CC(N)=O)C(=O)N[C@@H](CC(N)=O)C(=O)N[C@H](C(=O)O)C(C)C [CYRPA_242] (H-YVGDNINNV-OH) | 1820 nM
CC[C@H](C)[C@H](NC(=O)[C@H](CO)NC(=O)[C@H](CC(N)=O)NC(=O)[C@H](CCC(=O)O)NC(=O)[C@H](CC(N)=O)NC(=O)[C@H](CC(N)=O)NC(=O)[C@H](Cc1ccccc1)NC(=O)[C@H](Cc1ccccc1)NC(=O)[C@@H](NC(=O)[C@@H](N)Cc1ccc(O)cc1)[C@@H](C)CC)C(=O)O [CYRPA_304] (H-YIFFNNENSI-OH) | 2830 nM
CC(C)C[C@H](NC(=O)CNC(=O)[C@H](CC(=O)O)NC(=O)[C@H](CC(N)=O)NC(=O)[C@@H](NC(=O)[C@H](CC(N)=O)NC(=O)[C@@H](NC(=O)[C@H](CC(N)=O)NC(=O)[C@H](CC(C)C)NC(=O)[C@@H](N)Cc1ccc(O)cc1)[C@@H](C)O)C(C)C)C(=O)O [RH5_86] (H-YLNTNVNDGL-OH) | 2830 nM
CC(C)C[C@H](NC(=O)[C@H](CCC(=O)O)NC(=O)[C@H](CCCCN)NC(=O)[C@H](Cc1ccccc1)NC(=O)[C@H](Cc1c[nH]cn1)NC(=O)[C@H](Cc1ccc(O)cc1)NC(=O)[C@H](CCC(N)=O)NC(=O)[C@H](CC(C)C)NC(=O)[C@@H](N)Cc1ccccc1)C(=O)O [RH5_144] (H-FLQYHFKEL-OH) | 14600 nM
CC[C@H](C)[C@H](NC(=O)[C@@H](N)CCCCN)C(=O)N[C@@H](CC(N)=O)C(=O)N[C@@H](CCC(=O)O)C(=O)N[C@H](C(=O)N[C@@H](Cc1ccc(O)cc1)C(=O)N[C@@H](CC(=O)O)C(=O)N[C@@H](CCCCN)C(=O)N[C@H](C(=O)O)C(C)C)[C@@H](C)O [RH5_212] (H-KINETYDKV-OH) | 10100 nM
CC[C@H](C)[C@H](NC(=O)[C@H](CC(C)C)NC(=O)[C@H](CCCCN)NC(=O)[C@H](Cc1c[nH]cn1)NC(=O)[C@@H](NC(=O)[C@@H](N)Cc1ccc(O)cc1)[C@@H](C)CC)C(=O)N[C@@H](CC(C)C)C(=O)N[C@@H](CO)C(=O)N[C@H](C(=O)O)C(C)C [RH5_363] (H-YIHKLILSV-OH) | 1150 nM
CC[C@H](C)[C@H](NC(=O)[C@H](Cc1ccccc1)NC(=O)[C@H](CCCCN)NC(=O)[C@@H](NC(=O)[C@@H](NC(=O)[C@H](CC(=O)O)NC(=O)[C@@H](NC(=O)[C@H](Cc1ccc(O)cc1)NC(=O)[C@@H](NC(=O)[C@@H](N)Cc1ccc(O)cc1)[C@@H](C)CC)[C@@H](C)CC)[C@@H](C)O)[C@@H](C)CC)C(=O)O [RH5_404] (H-YIYIDTIKFI-OH) | 53100 nM
CC[C@H](C)[C@H](N)C(=O)N[C@@H](CC(C)C)C(=O)N[C@@H](CC(=O)O)C(=O)N[C@@H](CCSC)C(=O)N[C@@H](CO)C(=O)N[C@@H](CC(N)=O)C(=O)N[C@@H](CCC(=O)O)C(=O)N[C@@H](Cc1ccc(O)cc1)C(=O)N[C@@H](CO)C(=O)N[C@@H](CC(C)C)C(=O)O [RH5_459] (H-ILDMSNEYSL-OH) | 6870 nM
CC[C@H](C)[C@H](NC(=O)[C@H](Cc1ccccc1)NC(=O)[C@H](CC(C)C)NC(=O)[C@@H](N)CO)C(=O)N[C@H](C(=O)N[C@@H](CO)C(=O)N[C@@H](CC(=O)O)C(=O)N[C@@H](Cc1c[nH]cn1)C(=O)N[C@@H](CC(C)C)C(=O)O)[C@@H](C)O [RH5_467] (H-SLFITSDHL-OH) | 7120 nM
CSCC[C@H](NC(=O)[C@H](CCC(N)=O)NC(=O)[C@@H](N)CCCNC(=N)N)C(=O)N[C@@H](CC(C)C)C(=O)N[C@@H](Cc1ccc(O)cc1)C(=O)N[C@@H](CC(N)=O)C(=O)N[C@H](C(=O)N[C@@H](Cc1ccccc1)C(=O)N[C@@H](Cc1ccc(O)cc1)C(=O)N[C@@H](CO)C(=O)O)[C@@H](C)O [RH5_476] (H-RQMLYNTFYS-OH) | 319000 nM
CC[C@H](C)[C@H](NC(=O)[C@H](CC(N)=O)NC(=O)[C@H](CC(N)=O)NC(=O)[C@H](CC(C)C)NC(=O)[C@@H](N)Cc1c[nH]cn1)C(=O)N[C@@H](Cc1ccccc1)C(=O)N[C@@H](Cc1c[nH]cn1)C(=O)N[C@@H](Cc1c[nH]cn1)C(=O)N[C@@H](CC(C)C)C(=O)O [RH5_489] (H-HLNNIFHHL-OH) | 225 nM
CC[C@H](C)[C@H](NC(=O)[C@H](CC(C)C)NC(=O)[C@H](Cc1c[nH]cn1)NC(=O)[C@H](Cc1c[nH]cn1)NC(=O)[C@H](Cc1ccccc1)NC(=O)[C@@H](NC(=O)[C@@H](N)CC(N)=O)[C@@H](C)CC)C(=O)N[C@@H](Cc1ccc(O)cc1)C(=O)N[C@H](C(=O)O)C(C)C [RH5_492] (H-NIFHHLIYV-OH) | 2290 nM
CC(C)C[C@H](NC(=O)[C@H](CO)NC(=O)[C@H](Cc1ccccc1)NC(=O)[C@@H](NC(=O)[C@H](CC(C)C)NC(=O)[C@@H](N)CCCCN)[C@@H](C)O)C(=O)N[C@@H](CC(=O)O)C(=O)N[C@@H](Cc1c[nH]cn1)C(=O)N[C@@H](CCCNC(=N)N)C(=O)N[C@H](C(=O)O)C(C)C [RIPR_0035] (H-KLTFSLDHRV-OH) | 8880 nM
CC[C@H](C)[C@H](NC(=O)[C@H](CO)NC(=O)[C@H](C)NC(=O)[C@H](CC(=O)O)NC(=O)[C@H](CC(=O)O)NC(=O)[C@H](CC(N)=O)NC(=O)[C@H](Cc1ccc(O)cc1)NC(=O)[C@H](CCC(N)=O)NC(=O)[C@@H](N)Cc1ccccc1)C(=O)O [RIPR_0991] (H-FQYNDDASI-OH) | 275 nM
CC[C@H](C)[C@H](NC(=O)[C@H](CCCCN)NC(=O)[C@H](Cc1c[nH]c2ccccc12)NC(=O)[C@@H](NC(=O)[C@@H](NC(=O)[C@H](CCC(N)=O)NC(=O)[C@H](CC(N)=O)NC(=O)[C@H](Cc1ccc(O)cc1)NC(=O)[C@@H](NC(=O)[C@@H](N)Cc1ccc(O)cc1)[C@@H](C)CC)[C@@H](C)CC)[C@@H](C)CC)C(=O)O [RIPR_1011] (H-YIYNQIIWKI-OH) | 1950 nM
